pIC50: −log10 of the molar value.

Experimental findings from US9346849B2, “Amino sugar-bound anti-cancerous noble metal complex” (NATIONAL UNIVERSITY CORPORATION NARA INSTITUTE OF SCIENCE …, priority 2012, dated 2016) are described below.

What all share (format): cell-based
The test system of one experiment is MKN45. The experiment is described as follows: Anticancer activity test (MTT viability), gastric cancer cell line MKN45. As to conditions: for pIC50: MKN45 (n=4), drug incubation 48 hours, MTT. How it is done: (§1) 1. Gastric cancer cell lines MKN28 and MKN45 were individually seeded in 96-well plates in duplicate at 1×10^3 cells/100 μL/well (a medium (RPMI1640) containing 10% FBS was used) and incubated at 37° C. and 5% CO2 for 68 hours.
(§2) 2. A preparation made by mixing a drug (CDDP ([PtCl2(NH3)2]) or Pd-Oqn) with the medium was dispensed into each well, and thereafter incubated at 37° C. and 5% CO2 for 48 hours.
(§3) 3. MTT was dispensed into each well at 10 μL/well, followed by incubation at 37° C. for 4 hours. Thereafter, the absorbance at 450 nm was measured with a microplate reader, and the viability was calculated.

For a further experiment, the system named is MKN28. Kind of experiment: Anticancer activity test (MTT viability), gastric cancer cell line MKN28. The conditions noted are these: MKN28 (n=4), drug incubation 48 hours. How it is done: as §1, §2, §3
Another experiment relates to Panc-1. The experiment is described as follows: Anticancer activity test (MTT viability), pancreatic cancer cell line Panc-1. As to conditions: for pIC50: Panc-1 (n=4), drug incubation 48 hours, MTT. How it is done:
1. A pancreatic cancer cell line (Panc-1) was seeded in 96-well plates in duplicate at 1×10^3 cells/100 μL/well (a medium (RPMI1640) containing 10% FBS was used) and incubated at 37° C. and 5% CO2 for 68 hours.
as §2, §3

On to `N.N.[Cl][Pt][Cl]` [CDDP, [PtCl2(NH3)2], reference compound], for which the pIC50 (usually −log10 of the IC50, conventionally taken in molar units) was 4.55 in the experiment on MKN45, 4.06 with MKN28 and 3.91 in the experiment on Panc-1.

Take [Pd(GlcN=Oqn)Cl] [Pd-Oqn]: the results for the pIC50 with MKN45, in the experiment with MKN28 and in the experiment with Panc-1 were 4.93, 4.76 and 4.20, respectively. Further, the “anticancer activity (IC50) relative to cisplatin” value in the experiment with MKN45 (stomach cancer cells MKN45 and MKN28 together, versus cisplatin) was “about two to five times higher”; in the experiment on Panc-1 (Panc-1, versus cisplatin), “about two times higher”.
